US20260191864A1, “Uses of Hydroimidazopyridopyrimidinone Derivatives for Managing Aneurysms or Other Vascular Conditions or Diseases” (Emory University, priority 2022, published 2026)

Key:
aortic aneurysms = conditions: mice; aortic diameter at day 14 vs baseline (FIGS. 1A-1C)
Excerpt: It is contemplated that VSMC phenotypic modulation is responsible for foam cell formation during atherosclerosis.
Data represents percentage of maximal aortic dilation on day 14 of each animal. The recording and subsequent analysis were blinded to the assignment of the treatment regimen.
Images were quantified using ImageJ plus/color deconvolution plugin.

vascular smooth muscle = vascular smooth muscle differentiation in vivo (ACTA2 smooth muscle actin staining); conditions: mice, ACTA2 staining (FIG. 1D)

Structure (SMILES): Cc1ccccc1CN1C(=O)C2=C(CCN(Cc3ccccc3)C2)N2CCN=C12 [ONC201, 7-benzyl-4-(2-methylbenzyl)-2,4,6,7,8,9-hexahydroimidazo[1,2-a]pyrido[3,4-e]pyrimidin-5 (1H)-one]
- formation of aortic aneurysms (aortic aneurysms): inhibits the formation of aortic aneurysms in mice
- vascular smooth muscle differentiation (vascular smooth muscle): induces vascular smooth muscle differentiation in vivo
